The test system of series [1] is A-549 (human lung adenocarcinoma cell line). Nature of the series: MTT assay, cytotoxicity against A549. The format is cell-based. Particulars: read-out: IC50 A549. The procedure:
(§1) All the synthesized derivatives of HO were tested for their antiproliferative activity against four human cancer cell lines, including the HCT-116, A375, A-549, and Huh-7 cell lines, using the MTT assay. Cisplatin was used as a positive control, while lead compound HO (1) was also included in the study for comparison.
(§2) HCT-116 (Human colon cancer cell line), A375 (human melanoma cancer cell line), A-549 (human lung adenocarcinoma cell line), Huh-7 (human hepatoma cancer cell line), and L-02 (normal hepatic cell line) were purchased from the Cell Bank of Shanghai Institute of Biochemistry and Cell Biology, Chinese Academy of Sciences (Shanghai, China). The cells were cultured in Dulbecco’s modified Eagle medium (DMEM; NY, USA), which were all supplemented with 10% fetal bovine serum (FBS; NY, USA) at 37 °C with 5% CO2.
(§3) The cytotoxic activity was evaluated using the MTT assay. Briefly, cells were seeded in 96-well plates at a density of 5 × 10^3 cells/well in 100 μL of DMEM medium at 37 °C for 24 h. Stock solutions of test compounds were prepared in DMSO at concentration of 50 mM, and twofold serial dilution with a culture medium was performed to obtain appropriate concentrations right before the assay. After that, the cells were incubated with synthetic derivatives or cisplatin as a positive control at the various concentrations (0.78125-50 μM) for 48 h. Then, 20 μL of 3-(4,5-Dimethylthiazol-2-yl)-2,5-diphenyltetrazolium bromide (MTT, Aladdin, Shanghai, China) solution (5 mg/mL in PBS) was added, and then the cells were incubated at 37 °C for an additional 4 h. The supernatant was removed, and 150 μL of dimethyl sulfoxide was added to dissolve the MTT formazan. The optical density (OD) was measured on a microplate reader (SpectraMax Plus 384, Molecular Devices, Sunnyvale, CA, USA) at a wavelength of 570 nm. The cytotoxic activity was expressed as the IC50 values. The above tests were repeated three times in parallel. Vehicle DMSO (0.1%) was used as a negative control.
(In general: Tetrazolium dyes change colour on reduction, which living cells bring about.)

Series [2] concerns HCT-116 (human colon cancer cell line). Nature of the series: MTT assay, cytotoxicity against HCT-116. Particulars: read-out: IC50 HCT-116. In kind it is cell-based. How it is done:
as §1, §2, §3

Series [3] has as its system Huh-7 (human hepatoma cancer cell line). Nature of the series: MTT assay, cytotoxicity against Huh-7. The format is cell-based. Particulars: read-out: IC50 Huh-7. How it is done:
as §1, §2, §3

Series [4] deals with A375 (human melanoma cancer cell line). Nature of the series: MTT assay, cytotoxicity against A375. The format is cell-based. The note with it: read-out: IC50 A375. How it is done: as §1, §2, §3
Series [5] relates to HCT-116, A375, A549, and Huh-7 cells. Nature of the series: MTT assay, statements for the whole panel of tested cancer cells. The format is cell-based, human. The note with it: for IC50: Homo sapiens, all tested cancer cells (HCT-116, A375, A549, Huh-7), read-out: IC50 against tested cells; for cytotoxic activities against four tested cancer cells (result in words): HCT-116, A375, A549, Huh-7, tested up to 50 μM; for cytotoxic activities against three other cancer cell lines (result in words): cell lines other than A549. The procedure: as §1, §2, §3

Setting [6] is: Homo sapiens, A549, 48 h, MTT, 48 h, A549 cells.
Where [7] appears, read: Homo sapiens, HCT-116, 48 h, MTT, 48 h, HCT-116 cells.
The mark [8] stands for this setting: Homo sapiens, Huh-7, 48 h, MTT, 48 h, Huh-7 cells.
Where [9] appears, read: Homo sapiens, A-375, 48 h, MTT, 48 h, A375 cells.

SMILES strings stand for the structures. Entries after “also recorded” stand apart in the source; their conditions may differ. Like-named read-outs stand apart in the source and are kept apart here.

Consider `N.N.[Cl][Pt][Cl]` [Cisplatin, reference compound], for which the IC50 worked out at 8.53 ± 0.98 µM in series [1] (MTT, 48 h, A549 cells); 4.48 ± 0.18 µM in series [2] (MTT, 48 h, HCT-116 cells); 15.04 ± 0.15 µM in series [3] (MTT, 48 h, Huh-7 cells); 4.04 ± 0.23 µM in series [4] (MTT, 48 h, A375 cells).
In the case of `Cc1cc(=O)cc2c3c1C1OC4C5OC(=O)C(CC2=O)(C4C)C3C15` [Compound 13, (3R,4aR,10aS,11S)-5,11-dimethyl-2a,3,4a,10a1-tetrahydro-1H-2,4-dioxa-3,10a-methanocyclohepta[bc]cyclopenta[jk]acenaphthylene-1,7,9(2a1H,10H)-trione], the IC50 in series [1] (setting [6]), in series [2] (setting [7]), in series [5], in series [3] (setting [8]) and in series [4] (setting [9]) was over 50 µM in each case.
With `Cc1cc(=O)cc2c3c1C1OC4C5OC(=O)C(CC2O)(C4C)C3C15` [Compound 12, (3R,4aR,9R,10aS,11S)-9-hydroxy-5,11-dimethyl-2a,3,4a,9,10,10a1-hexahydro-1H-2,4-dioxa-3,10a-methanocyclohepta[bc]cyclopenta[jk]acenaphthylene-1,7(2a1H)-dione], the IC50 in series [1] (MTT, 48 h, A549 cells) was 34.7 ± 1.94 µM; in series [2] (MTT, 48 h, HCT-116 cells), 31.9 ± 0.69 µM; in series [3] (MTT, 48 h, Huh-7 cells) it was over 50 µM; in series [4] (MTT, 48 h, A375 cells), 40.4 ± 7.58 µM.
For `Cc1cc(=O)cc2c3c1C1OC4C5OC(=O)C(CC2Br)(C4C)C3C15` [Compound 8, (3R,4aR,9R,10aS,11S)-9-bromo-5,11-dimethyl-2a,3,4a,9,10,10a1-hexahydro-1H-2,4-dioxa-3,10a-methanocyclohepta[bc]cyclopenta[jk]acenaphthylene-1,7(2a1H)-dione], the 50% inhibitory concentration (IC50) in series [1] (setting [6]) worked out at 43.4 ± 1.08 µM; in series [2] (setting [7]), 2.19 ± 0.23 µM; in series [3] (setting [8]) it was 30.8 ± 0.6 µM; in series [4] (setting [9]), 3.4 ± 0.22 µM.
Take `Cc1cc(=O)c(N)c2c3c1C1OC4C5OC(=O)C(CC2)(C4C)C3C15` [Compound 2, (3R,4aR,10aS,11S)-8-amino-5,11-dimethyl-2a,3,4a,9,10,10a1-hexahydro-1H-2,4-dioxa-3,10a-methanocyclohepta[bc]cyclopenta[jk]acenaphthylene-1,7(2a1H)-dione]: the IC50 in series [1] (setting [6]), in series [2] (setting [7]), in series [3] (setting [8]) and in series [4] (setting [9]) was over 50 µM throughout. Further, the “cytotoxic activities against four tested cancer cells (result in words)” value in series [5] is recorded as “losing of cytotoxic activities”.
Regarding `Cc1cc(=O)cc2c3c1C1OC4C5OC(=O)C(CC2OC(=O)CCC(=O)O)(C4C)C3C15` [Compound 11b, 4-(((3R,4aR,9S,10aS,11S)-5,11-dimethyl-1,7-dioxo-2a,2a1,3,4a,7,9,10,10a1-octahydro-1H-2,4-dioxa-3,10a-methanocyclohepta[bc]cyclopenta[jk]acenaphthylen-9-yl)oxy)-4-oxobutanoic acid], the IC50 in series [1] (setting [6]), in series [2] (setting [7]), in series [5], in series [3] (setting [8]) and in series [4] (setting [9]) was over 50 µM throughout.
With `Cc1cc(=O)cc2c3c1C1OC4C5OC(=O)C(CC2OC(=O)c2ccccc2)(C4C)C3C15` [Compound 11d, (3R,4aR,9S,10aS,11S)-5,11-dimethyl-1,7-dioxo-2a,2a1,3,4a,7,9,10,10a1-octahydro-1H-2,4-dioxa-3,10a-methanocyclohepta[bc]cyclopenta[jk]acenaphthylen-9-yl benzoate], the IC50 in series [1] (setting [6]), in series [2] (setting [7]), in series [5], in series [3] (setting [8]) and in series [4] (setting [9]) was over 50 µM throughout.
As to `CC(=O)OC1CC23C(=O)OC4C(OC5c6c(C)cc(=O)cc1c6C2C54)C3C` [Compound 11a, (3R,4aR,9S,10aS,11S)-5,11-dimethyl-1,7-dioxo-2a,2a1,3,4a,7,9,10,10a1-octahydro-1H-2,4-dioxa-3,10a-methanocyclohepta[bc]cyclopenta[jk]acenaphthylen-9-yl acetate], the IC50 in series [1] (setting [6]) was 27.5 ± 0.89 µM; in series [2] (setting [7]) it was 5.95 ± 0.45 µM; in series [3] (setting [8]) it was over 50 µM; in series [4] (setting [9]), 30.1 ± 1.58 µM. For the same compound, in series [5], the “cytotoxic activities against three other cancer cell lines (result in words)” value is “weak cytotoxic activities”.
On the same counts, the results for `Cc1cc(=O)cc2c3c1C1OC4C5OC(=O)C(CC2OC(=O)c2nc(C)c(C)nc2C)(C4C)C3C15` [Compound 11f, (3R,4aR,9S,10aS,11S)-5,11-dimethyl-1,7-dioxo-2a,2a1,3,4a,7,9,10,10a1-octahydro-1H-2,4-dioxa-3,10a-methanocyclohepta[bc]cyclopenta[jk]acenaphthylen-9-yl 3,5,6-trimethylpyrazine-2-carboxylate] are 25.9 ± 0.68 µM, 10.8 ± 0.42 µM, over 50 µM, 18.6 ± 2.23 µM and “weak cytotoxic activities”.
As for `Cc1ccc2c3c1C1OC4C5OC(=O)C(CC2=O)(C4C)C3C15` [Compound 7, (3R,4aR,9aS,10S)-5,10-dimethyl-2a,2a1,4a,9a1-tetrahydro-1H,3H-2,4-dioxa-3,9a-methanopentaleno [4,3,2,1-cdef]phenanthrene-1,8(9H)-dione], the IC50 in series [1] (setting [6]), in series [2] (setting [7]), in series [3] (setting [8]) and in series [4] (setting [9]) was over 50 µM each time. Also, the “cytotoxic activities against four tested cancer cells (result in words)” value in series [5] is “inactive; also recorded: losing of cytotoxic activities”.
Consider `Cc1cc(=O)cc2c3c1C1OC4C5OC(=O)C(CC2OC(=O)c2ccco2)(C4C)C3C15` (stereo not shown) [Compound 11c], for which the IC50 was 23.2 ± 0.67 µM in series [1] (setting [6]), 11 ± 0.34 µM in series [2] (setting [7]), over 50 µM in series [3] (setting [8]) and 16.4 ± 1.92 µM in series [4] (setting [9]). For the same compound, the “cytotoxic activities against three other cancer cell lines (result in words)” value in series [5] was “weak cytotoxic activities”.
As for `CC(=O)OC1OC2C3OC4c5c(C)cc(=O)cc6c5C(C42)C1(CC6)C3C` [Compound 5, (1S,3R,4aR,10aS,11S)-5,11-dimethyl-7-oxo-2a,2a1,3,4a,7,9,10,10a1-octahydro-1H-2,4-dioxa-3,10a-methanocyclohepta[bc]cyclopenta[jk]acenaphthylen-1-yl acetate], the IC50 in series [1] (setting [6]), in series [2] (setting [7]), in series [3] (setting [8]) and in series [4] (setting [9]) was over 50 µM each time. Also, the “cytotoxic activities against four tested cancer cells (result in words)” value in series [5] is on record as “losing of cytotoxic activities”.
Turning to `COc1c2c3c(c(C)cc1=O)C1OC4C5OC(=O)C(CC2)(C4C)C3C15` [Compound 9, (3R,4aR,10aS,11S)-8-methoxy-5,11-dimethyl-2a,3,4a,9,10,10a1-hexahydro-1H-2,4-dioxa-3,10a-methanocyclohepta[bc]cyclopenta[jk]acenaphthylene-1,7(2a1H)-dione], the concentration for half-maximal inhibition (IC50) in series [1] (Homo sapiens, A549, 48 h) is over 50 µM; in series [2] (Homo sapiens, HCT-116, 48 h), over 50 µM; in series [3] (Homo sapiens, Huh-7, 48 h), over 50 µM; in series [4] (Homo sapiens, A-375, 48 h) it was over 50 µM. Also, in series [5], the “cytotoxic activities against four tested cancer cells (result in words)” value was “inactive; also recorded: losing of cytotoxic activities”.
For `Cc1cc(=O)cc2c3c1C1OC4C5OC(=O)C(CC2OC(=O)c2ccccn2)(C4C)C3C15` [Compound 11e, (3R,4aR,9S,10aS,11S)-5,11-dimethyl-1,7-dioxo-2a,2a1,3,4a,7,9,10,10a1-octahydro-1H-2,4-dioxa-3,10a-methanocyclohepta[bc]cyclopenta[jk]acenaphthylen-9-yl picolinate], the IC50 in series [1] (setting [6]) was 18 ± 4.18 µM; in series [2] (setting [7]), 5.47 ± 0.27 µM; in series [3] (setting [8]), over 50 µM; in series [4] (setting [9]), 7.08 ± 0.42 µM. Besides, the “cytotoxic activities against three other cancer cell lines (result in words)” value in series [5] is “weak cytotoxic activities”.

For orientation: IC50 means the midpoint of a concentration-inhibition curve.

The values are drawn from article PMC7961763, “Semi-Synthesis of Harringtonolide Derivatives and Their Antiproliferative Activity” (Molecules, 2021).
